Counter-ions that a name gives are not always drawn.
Biological target: IRAK4 (Homo sapiens (Human), UniProt Q9NWZ3)
Assay: IRAK4 kinase activity, IMAP fluorescence polarization assay
Format: biochemical
Settings: 100 μM ATP; read-out: IC50
How it was run: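 Fluorescence polarization (IMAP nanoparticle binding of phosphopeptide) reports activity after a 30 min, 25 °C reaction. Conditions: 100 μM ATP, 0.5 nM GST-IRAK4, 100 nM fluorescent peptide, 10 mM Tris pH 7.2, 1 mM MgCl2, 1 mM DTT, 0.01% Tween 20.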

Sequence of IRAK4 (Q9NWZ3 whole entry): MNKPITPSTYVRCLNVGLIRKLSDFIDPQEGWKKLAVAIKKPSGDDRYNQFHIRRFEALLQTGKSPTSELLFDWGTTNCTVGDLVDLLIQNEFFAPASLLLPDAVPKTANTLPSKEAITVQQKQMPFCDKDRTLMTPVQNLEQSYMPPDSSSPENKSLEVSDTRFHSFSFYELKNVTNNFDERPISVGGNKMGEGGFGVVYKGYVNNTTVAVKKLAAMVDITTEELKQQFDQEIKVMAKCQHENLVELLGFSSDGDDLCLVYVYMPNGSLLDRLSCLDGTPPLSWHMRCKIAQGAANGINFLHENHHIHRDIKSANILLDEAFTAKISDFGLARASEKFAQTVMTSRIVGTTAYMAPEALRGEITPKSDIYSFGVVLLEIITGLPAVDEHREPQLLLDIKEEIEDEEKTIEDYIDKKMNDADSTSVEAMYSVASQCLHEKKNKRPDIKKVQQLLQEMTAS

In the case of `CNC(=O)C1CN(c2nc(N[C@@H]3CCCNC3)c(-c3nc4ccccc4s3)c(=O)[nH]2)CCO1` (stereo partly drawn) [Example 287, 4-(5-(benzo[d]thiazol-2-yl)-6-oxo-4-((R)-piperidin-3-ylamino)-1,6-dihydropyrimidin-2-yl)-N-methylmorpholine-2-carboxamide], the IC50 is reported as 110 nM.
With `O=c1[nH]c(N2CCC2)nc(N[C@@H]2CCCNC2)c1-c1nc2ccccc2s1` [Example 288, (R)-2-(azetidin-1-yl)-5-(benzo[d]thiazol-2-yl)-6-(piperidin-3-ylamino)pyrimidin-4(3H)-one] the IC50 was 2000 nM.
`CN(C)c1nc(N[C@@H]2CCCNC2)c(-c2nc3ccccc3s2)c(=O)[nH]1` [Example 289, (R)-5-(benzo[d]thiazol-2-yl)-2-(dimethylamino)-6-(piperidin-3-ylamino)pyrimidin-4(3H)-one] gave an IC50 of 74 nM.
In the case of `CC1CCCN(c2nc(N[C@@H]3CCCNC3)c(-c3nc4ccccc4s3)c(=O)[nH]2)C1` (stereo partly drawn) [Example 290, 5-(benzo[d]thiazol-2-yl)-2-(3-methylpiperidin-1-yl)-6-((R)-piperidin-3-ylamino)pyrimidin-4(3H)-one], the IC50 is reported as 140 nM.
`O=c1[nH]c(N[C@H]2c3ccccc3C[C@@H]2O)nc(N[C@@H]2CCCNC2)c1-c1nc2ccccc2s1` [Example 291, 5-(benzo[d]thiazol-2-yl)-2-((1S,2S)-2-hydroxy-2,3-dihydro-1H-inden-1-ylamino)-6-((R)-piperidin-3-ylamino)pyrimidin-4(3H)-one] gave an IC50 of 3000 nM.
With `CN(CCO)c1nc(N[C@@H]2CCCNC2)c(-c2nc3ccccc3s2)c(=O)[nH]1` [Example 292, (R)-5-(benzo[d]thiazol-2-yl)-2-((2-hydroxyethyl)(methyl)amino)-6-(piperidin-3-ylamino)pyrimidin-4(3H)-one] the IC50 was 190 nM.
Work on `COC1CCN(c2nc(N[C@@H]3CCCNC3)c(-c3nc4ccccc4s3)c(=O)[nH]2)CC1` [Example 293, (R)-5-(benzo[d]thiazol-2-yl)-2-(4-methoxypiperidin-1-yl)-6-(piperidin-3-ylamino)pyrimidin-4(3H)-one] yielded an IC50 of 63 nM.
Work on `CC1CN(c2nc(N[C@@H]3CCCNC3)c(-c3nc4ccccc4s3)c(=O)[nH]2)CC(C)O1` (stereo partly drawn) [Example 294, 5-(benzo[d]thiazol-2-yl)-2-(2,6-dimethylmorpholino)-6-((R)-piperidin-3-ylamino)pyrimidiri-4{3H)-one] yielded an IC50 of 300 nM.
Molecule `O=c1[nH]c(N2CCCC2)nc(N[C@@H]2CCCNC2)c1-c1nc2ccccc2s1` [Example 295] has an IC50 of 11 nM.
`CC1CC(C)CN(c2nc(N[C@@H]3CCCNC3)c(-c3nc4ccccc4s3)c(=O)[nH]2)C1` (stereo partly drawn) [Example 296, 5-(1,3-benzothiazol-2-yl)-2-(3,5-dimethylpiperidin-1-yl)-6-[[(3R)-piperidin-3-yl]amino]-3,4-dihydropyrimidin-4-one trifluoroacetic acid] gave an IC50 of 570 nM.
`CC1CCN(c2nc(N[C@@H]3CCCNC3)c(-c3nc4ccccc4s3)c(=O)[nH]2)CC1` [Example 297, 5-(1,3-benzothiazol-2-yl)-2-(4-methylpiperidin-1-yl)-6-[[(3R)-piperidin-3-yl]amino]-3,4-dihydropyrimidin-4-one] gave an IC50 of 69 nM.
With `O=c1[nH]c(N[C@H]2c3ccccc3C[C@H]2O)nc(N[C@@H]2CCCNC2)c1-c1nc2ccccc2s1` [Example 298, 5-(1,3-benzothdazol-2-yl)-2-[[(1S,2R)-2-hydroxy-2,3-dihydro-1H-inden-1-yl]amino]-6-[[(3R)-piperidin-3-yl]amino]pyrimidin-4-ol; formic acid] the IC50 was 2500 nM.
`O=c1[nH]c(N[C@@H]2c3ccccc3C[C@@H]2O)nc(N[C@@H]2CCCNC2)c1-c1nc2ccccc2s1` [Example 299, 5-(1,3-benzothiazol-2-yl)-2-[[(1R,2S)-2-hydroxy-2,3-dihydro-1H-inden-1-yl]amino]-6-[[(3R)-piperidin-3-yl]amino]pyrimidin-4-ol formic acid] gave an IC50 of 1200 nM.
`O=c1[nH]c(N2CC3CCC(C2)O3)nc(N[C@@H]2CCCNC2)c1-c1nc2ccccc2s1` [Example 300, 5-(1,3-benzothiazol-2-yl)-2-[8-oxa-3-azabicyclo[3.2.1]octan-3-yl]-6-[[(3R)-piperidin-3-yl]amino]-3,4-dihydropyrimidin-4-one; trifluoroacetic acid] was tested, and the IC50 was 43 nM.
With `CN(c1nc(NC2CCCNC2)c(-c2nc3ccccc3s2)c(=O)[nH]1)[C@H]1CC[C@H](O)CC1` (stereo partly drawn) [Example 301, 5-(1,3-benzothiazol-2-yl)-2-[(4-hydroxycyclohexyl)(methyl)amino]-6-[[(3R)-piperidin-3-yl]amino]-3,4-dihydropyrimidin-4-one; trifluoroacetic acid] the IC50 was 390 nM.
`NC(=O)CNc1nc(N[C@@H]2CCCNC2)c(-c2nc3ccccc3s2)c(=O)[nH]1` [Example 302, (R)-2-(5-(benzo[d]thiazol-2-yl)-6-oxo-4-(piperidin-3-ylamino)-1,6-dihydropyrimidin-2-ylamino)acetamide bis(2,2,2-trifluoroacetate)] was tested, and the IC50 was 2300 nM.
`O=C1C[C@@H](Nc2nc(N[C@@H]3CCCNC3)c(-c3nc4ccccc4s3)c(=O)[nH]2)Cc2ccccc2N1` [Example 303, (S)-4-(5-(benzo[d]thiazol-2-yl)-6-oxo-4-((R)-piperidin-3-ylamino)-1,6-dihydropyrimidin-2-ylamino)-4,5-dihydro-1H-benzo[b]azepin-2(3H)-one] gave an IC50 of 5900 nM.
Molecule `O=C1C[C@H](Nc2nc(N[C@@H]3CCCNC3)c(-c3nc4ccccc4s3)c(=O)[nH]2)Cc2ccccc2N1` [Example 304] has an IC50 of 8900 nM.
Molecule `O=c1[nH]c(N2CCC(CO)CC2)nc(N[C@@H]2CCCNC2)c1-c1nc2ccccc2s1` [Example 305, 5-(1,3-benzothiazol-2-yl)-2-[4-(hydroxymethyl)piperidin-1-yl]-6-[[(3R)-piperidin-3-yl]amino]-3,4-dihydropyrimidin-4-one] has an IC50 of 62 nM.
Work on `O=c1[nH]c(N2CC[C@H](O)C2)nc(N[C@@H]2CCCNC2)c1-c1nc2ccccc2s1` [Example 306, 5-(benzo[d]thiazol-2-yl)-2-((S)-3-hydroxy-pyrrolidin-1-yl)-6-((R)-piperidin-3-ylamino)pyrimidin-4(3H)-one bis(2,2,2-trifluoro-acetate)] yielded an IC50 of 23 nM.
Molecule `CN(Cc1ccccc1)c1nc(N[C@@H]2CCCNC2)c(-c2nc3ccccc3s2)c(=O)[nH]1` [Example 307, 5-(1,3-benzothiazol-2-yl)-2-[benzyl(methyl)amino]-6-[[(3R)-piperidin-3-yl]amino]-3,4-dihydropyrimidin-4-one dihydrocbloride] has an IC50 of 310 nM.
`Cc1ccc2sc(-c3c(N[C@@H]4CCCNC4)nc(N4CCOCC4)[nH]c3=O)nc2c1` [Example 308, 5-(5-methyl-1,3-benzothiazol-2-yl)-2-(morpholin-4-yl)-6-[[(3R)-piperidin-3-yl]amino]-3,4-dihydropyrimidin-4-one; formic acid] showed an IC50 of 120 nM.
`O=c1[nH]c(N2CCCCC2)nc(N[C@@H]2CCCNC2)c1-c1nc2ccccc2s1` [Example 309, 5-(1,3-benzothiazol-2-yl)-2-(piperidin-1-yl)-6-[[(3R)-piperidin-3-yl]amino]-3,4-dihydropyrimidin-4-one hydrochloride] gave an IC50 of 71 nM.
`CN(c1nc(N[C@@H]2CCCNC2)c(-c2nc3ccccc3s2)c(=O)[nH]1)[C@H](CO)c1ccccc1` [Example 310, 5-(1,3-benzothiazol-2-yl)-2-[[(1S)-2-hydroxy-1-phenylethyl](methyl)amino]-6-[[(3R)-piperidin-3-yl]amino]-3,4-dihydropyrimidin-4-one; trifluoroacetic acid] was tested, and the IC50 was 250 nM.
`O=c1[nH]c(NCCO)nc(N[C@@H]2CCCNC2)c1-c1nc2ccccc2s1` [Example 311, 5-(1,3-benzothiazol-2-yl)-2-[(2-hydroxyethyl)amino]-6-[[(3R)-piperidin-3-yl]amino]-3,4-dihydropyrimidin-4-one; trifluoroacetic acid] was tested, and the IC50 was 450 nM.
`O=c1[nH]c(N2CCC(F)(F)CC2)nc(N[C@@H]2CCCNC2)c1-c1nc2ccccc2s1` [Example 312] was tested, and the IC50 was 78 nM.
`O=c1[nH]c(N2CCC3CCCCC3C2)nc(N[C@@H]2CCCNC2)c1-c1nc2ccccc2s1` (stereo partly drawn) [Example 313, 5-(1,3-benzothiazol-2-yl)-(decahydroisoquinolin-2-yl)-6-[[(3R)piperidin-3-yl]amino]-3,4-dihydropyrimidin-4-one; trifluoroacetic acid] was tested, and the IC50 was 330 nM.
Molecule `CC1CCCCN1c1nc(N[C@@H]2CCCNC2)c(-c2nc3ccccc3s2)c(=O)[nH]1` (stereo partly drawn) [Example 314] has an IC50 of 280 nM.
Work on `O=c1[nH]c(N2CC[C@@H](O)C2)nc(N[C@@H]2CCCNC2)c1-c1nc2ccccc2s1` [Example 315] yielded an IC50 of 17 nM.
Molecule `CC(=O)N1CCN(c2nc(N[C@@H]3CCCNC3)c(-c3nc4ccccc4s3)c(=O)[nH]2)CC1` [Example 316, 2-(4-acetylpiperazin-1-yl)-5-(1,3-benzothiazol-2-yl)-6-[[(3R)-piperidin-3-yl]amino]-3,4-dihydropyrimidin-4-one] has an IC50 of 450 nM.
For `O=c1[nH]c(N2CC3(COC3)C2)nc(N[C@@H]2CCCNC2)c1-c1nc2ccccc2s1` [Example 317, 5-(1,3-benzothiazol-2-yl)-2-[2-oxa-6-azaspiro[3.3]heptan-6-yl]-6-[[(3R)-piperidin-3-yl]amino]-3,4-dihydropyrimidin-4-one], the IC50 was 25 nM.
Molecule `NC(=O)C1CCN(c2nc(N[C@@H]3CCCNC3)c(-c3nc4ccccc4s3)c(=O)[nH]2)CC1` [Example 318, 1-[5-(1,3-benzothiazol-2-yl)-6-oxo-4-[[(3R)-piperidin-3-yl]amino]-1,6-dihydropyrimidin-2-yl]piperidine-4-carboxamide hydrochloride] has an IC50 of 74 nM.
Work on `CC1(c2ccc(Cl)cc2)CN(c2nc(N[C@@H]3CCCNC3)c(-c3nc4ccccc4s3)c(=O)[nH]2)CCO1` (stereo partly drawn) [Example 319, 5-(benzo[d]thiazol-2-yl)-2-(2-(4-chlorophenyl)-2-methylmorpholino)-6-((R)-piperidin-3-ylamino)pyrimidin-4(3H)-one hydrochloride] yielded an IC50 of 2500 nM.
